Laboratory results taken from patent US20250325552A1, “SUBSTITUTED THIADIAZOLYL DERIVATIVES AS DNA POLYMERASE THETA INHIBITORS” (IDEAYA Biosciences, Inc., priority 2020, published 2025).

molecular target: Polθ theta (1-899) (hPolQ) (Homo sapiens (Human), UniProt O75417); assay: Biological Assay 1: Polθ ATPase activity, NADH oxidation-coupled enzymatic assay (10 nM enzyme, 30 min); format: biochemical; details: Polθ (1-899) 10 nM, 100 μM ATP, 300 nM dT50 ssDNA; Examples 1 to 268; read-out: ATPase NADH coupling:Standard Screening:hPolQ IC50
In short: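 ATP turnover was coupled to NADH oxidation and followed at 340 nm every minute for 30 min. Enzyme (residues 1-899, 10 nM) sat with compound for 15 min at room temperature before an equal-volume addition of 100 μM ATP plus 300 nM dT50 ssDNA. Progress-curve slopes from 10-point dilutions were fitted by a four-parameter model.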

Chain of Polθ theta (1-899) (hPolQ) (O75417 1-899): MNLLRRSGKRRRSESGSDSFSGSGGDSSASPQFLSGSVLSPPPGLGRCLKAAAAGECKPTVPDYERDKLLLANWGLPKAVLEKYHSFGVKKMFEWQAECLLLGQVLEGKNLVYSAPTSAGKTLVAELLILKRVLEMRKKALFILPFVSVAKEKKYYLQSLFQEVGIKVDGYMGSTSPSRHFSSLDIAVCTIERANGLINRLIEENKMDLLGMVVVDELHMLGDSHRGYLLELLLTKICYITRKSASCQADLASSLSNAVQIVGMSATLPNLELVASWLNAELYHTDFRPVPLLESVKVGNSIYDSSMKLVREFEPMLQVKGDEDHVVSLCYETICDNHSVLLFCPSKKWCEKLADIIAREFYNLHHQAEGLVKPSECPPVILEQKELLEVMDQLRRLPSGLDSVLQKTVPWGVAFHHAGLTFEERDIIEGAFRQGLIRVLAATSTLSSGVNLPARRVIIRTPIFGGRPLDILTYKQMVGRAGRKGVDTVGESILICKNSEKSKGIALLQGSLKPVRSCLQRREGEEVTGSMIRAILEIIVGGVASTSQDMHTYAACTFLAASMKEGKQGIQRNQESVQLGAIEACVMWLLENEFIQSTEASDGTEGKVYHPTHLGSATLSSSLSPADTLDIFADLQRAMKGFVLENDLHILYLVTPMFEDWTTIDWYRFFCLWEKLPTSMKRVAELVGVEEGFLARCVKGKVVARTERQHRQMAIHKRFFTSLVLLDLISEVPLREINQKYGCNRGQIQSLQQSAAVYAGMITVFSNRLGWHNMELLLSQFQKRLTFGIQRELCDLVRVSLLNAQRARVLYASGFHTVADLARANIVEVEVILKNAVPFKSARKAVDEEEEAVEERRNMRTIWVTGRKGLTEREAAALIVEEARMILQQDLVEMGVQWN

IC50 | Structure (SMILES)
≤ 200 nM | COc1cnc(Br)cc1-c1cc(C)ncc1C(=O)Nc1nnc(OCC2CCOC2)s1 (racemic) [Example 260, 2′-bromo-5′-methoxy-6-methyl-N-(5-((tetrahydrofuran-3-yl)methoxy)-1,3,4-thiadiazol-2-yl)-(4,4′-bipyridine)-3-carboxamide]
≤ 200 nM | COc1cnc(C)cc1-c1cc(C)ncc1C(=O)Nc1nnc(OCc2ccc(OC(C)C)cn2)s1 [Example 74, N-(5-((5-isopropoxypyridin-2-yl)methoxy)-1,3,4-thiadiazol-2-yl)-5′-methoxy-2′,6-dimethyl-(4,4′-bipyridine)-3-carboxamide]
≤ 200 nM | COc1cnc(Cl)cc1-c1cc(C)ncc1C(=O)Nc1nnc(OCc2cnc(CO)cn2)s1 [Example 145, 2′-chloro-N-(5-((5-(hydroxymethyl)pyrazin-2-yl)methoxy)-1,3,4-thiadiazol-2-yl)-5′-methoxy-6-methyl-(4,4′-bipyridine)-3-carboxamide]
≤ 200 nM | COc1ccc(Cl)cc1-c1cc(C)ncc1C(=O)Nc1nnc(OCc2ccc([S@@](C)(=N)=O)cc2)s1 [Example 123, (S)-4-(5-chloro-2-methoxyphenyl)-6-methyl-N-(5-((4-(S-methylsulfonimidoyl)benzyl)oxy)-1,3,4-thiadiazol-2-yl)nicotinamide]
≤ 200 nM | COc1ccc(COc2nnc(NC(=O)c3cnc(C)cc3-c3c(F)cccc3OC)s2)nc1 [Example 20, 4-(2-fluoro-6-methoxyphenyl)-N-(5-((5-methoxypyridin-2-yl)methoxy)-1,3,4-thiadiazol-2-yl)-6-methylpyridine-3-carboxamide]
≤ 200 nM | COc1cnc(C)cc1-c1cc(C)ncc1C(=O)Nc1nnc(OCc2cnc(CO)cn2)s1 [Example 146, N-(5-((5-(hydroxymethyl)pyrazin-2-yl)methoxy)-1,3,4-thiadiazol-2-yl)-5′-methoxy-2′,6-dimethyl-[4,4′-bipyridine]-3-carboxamide]
≤ 200 nM | COc1ccccc1-c1cc(C)ncc1C(=O)Nc1nnc(OCc2ccc(C3(CO)CC3)cn2)s1 [Example 7, N-(5-((5-(1-(hydroxymethyl)cyclopropyl)pyridin-2-yl)methoxy)-1,3,4-thiadiazol-2-yl)-4-(2-methoxyphenyl)-6-methylnicotinamide]
≤ 200 nM | COc1cccc(F)c1-c1cc(C)ncc1C(=O)Nc1nnc(OCC23CC(O)(C2)C3)s1 [Example 61, 4-(2-fluoro-6-methoxyphenyl)-N-(5-((3-hydroxybicyclo(1.1.1)pentan-1-yl)methoxy)-1,3,4-thiadiazol-2-yl)-6-methylnicotinamide]
≤ 200 nM | COc1cnc(Cl)cc1-c1cc(C)ncc1C(=O)Nc1nnc(OC[C@H]2CC[C@@H](O)CC2)s1 [Example 128, 2′-chloro-N-(5-(((1s,4s)-4-hydroxycyclohexyl)methoxy)-1,3,4-thiadiazol-2-yl)-5′-methoxy-6-methyl-[4,4′-bipyridine]-3-carboxamide]
≤ 200 nM | COc1cnc(Cl)cc1-c1cc(C)ncc1C(=O)Nc1nnc(OCC2CC3(COC3)C2)s1 [Example 172, N-(5-((2-oxaspiro(3.3)heptan-6-yl)methoxy)-1,3,4-thiadiazol-2-yl)-2′-chloro-5′-methoxy-6-methyl-(4,4′-bipyridine)-3-carboxamide]
≤ 200 nM | COc1cnc(C)cc1-c1cc(C)ncc1C(=O)Nc1nnc(OCC2CC3(CC(O)C3)C2)s1 (stereo not shown) [Example 139, N-(5-((6-hydroxyspiro[3.3]heptan-2-yl)methoxy)-1,3,4-thiadiazol-2-yl)-5′-methoxy-2′,6-dimethyl-[4,4′-bipyridine]-3-carboxamide]
≤ 200 nM | COc1cccc(F)c1-c1cc(C)ncc1C(=O)Nc1nnc(OCC23CC(C#N)(C2)C3)s1 [Example 95, N-(5-((3-cyanobicyclo(1.1.1)pentan-1-yl)methoxy)-1,3,4-thiadiazol-2-yl)-4-(2-fluoro-6-methoxyphenyl)-6-methylpyridine-3-carboxamide]
≤ 200 nM | COc1cccc(F)c1-c1cc(C)ncc1C(=O)Nc1nnc(OCc2ccc([C@@H](C)O)cn2)s1 [Example 41, 4-(2-fluoro-6-methoxyphenyl)-N-(5-((5-((R)-1-hydroxyethyl)pyridin-2-yl)methoxy)-1,3,4-thiadiazol-2-yl)-6-methylnicotinamide]
500 to 1000 nM | COc1ccccc1-c1cc(C)ncc1C(=O)Nc1nnc(OC[C@@H](O)c2ccc(Cl)cn2)s1 [Example 28, (S)—N-(5-(2-(5-chloropyridin-2-yl)-2-hydroxyethoxy)-1,3,4-thiadiazol-2-yl)-4-(2-methoxyphenyl)-6-methylnicotinamide]
≤ 200 nM | COc1cnc(Cl)cc1-c1cc(C)ncc1C(=O)Nc1nnc(OC[C@@H]2C[C@@H]2F)s1 [Example 202, 2′-chloro-N-(5-(((1S,2S)-2-fluorocyclopropyl)methoxy)-1,3,4-thiadiazol-2-yl)-5′-methoxy-6-methyl-(4,4′-bipyridine)-3-carboxamide]
≤ 200 nM | COc1ccc(C#N)cc1-c1cc(C)ncc1C(=O)Nc1nnc(OCc2ccc(CO)cn2)s1 [Example 32, 4-(5-cyano-2-methoxyphenyl)-N-(5-((5-(hydroxymethyl)pyridin-2-yl)methoxy)-1,3,4-thiadiazol-2-yl)-6-methylpyridine-3-carboxamide]

IC50 | Structure (SMILES)
≤ 200 nM | COc1cnc(Cl)cc1-c1cc(C)ncc1C(=O)Nc1nnc(OC[C@H]2CC[C@H](O)CC2)s1 [Example 129, 2′-chloro-N-(5-(((1r,4r)-4-hydroxycyclohexyl)methoxy)-1,3,4-thiadiazol-2-yl)-5′-methoxy-6-methyl-[4,4′-bipyridine]-3-carboxamide]
≤ 200 nM | COc1cnc(Cl)cc1-c1cc(C)ncc1C(=O)Nc1nnc(OC[C@@H]2CO[C@H](C)C2)s1 (single isomer, unassigned) [Example 253]
≤ 200 nM | COc1cnc(C)c(F)c1-c1cc(C)ncc1C(=O)Nc1nnc(OC[C@H]2COCCO2)s1 [Example 242, N-(5-(((R)-1,4-dioxan-2-yl)methoxy)-1,3,4-thiadiazol-2-yl)-3′-fluoro-5′-methoxy-2′,6-dimethyl-(4,4′-bipyridine)-3-carboxamide]
≤ 200 nM | COc1ccc(COc2nnc(NC(=O)c3cnc(C)cc3-c3cc(Cl)ncc3OC)s2)nc1 [Example 45, 2′-chloro-5′-methoxy-N-(5-((5-methoxypyridin-2-yl)methoxy)-1,3,4-thiadiazol-2-yl)-6-methyl-(4,4′-bipyridine)-3-carboxamide]
≤ 200 nM | COc1cnc(Cl)cc1-c1cc(C)ncc1C(=O)Nc1nnc(OC[C@]23COC[C@H]2C3)s1 (single isomer, unassigned) [Example 231]
≤ 200 nM | COc1cnc(Cl)cc1-c1cc(C)ncc1C(=O)Nc1nnc(OC[C@H]2COCCO2)s1 [Example 187, (R)—N-(5-((1,4-dioxan-2-yl)methoxy)-1,3,4-thiadiazol-2-yl)-2′-chloro-5′-methoxy-6-methyl-(4,4′-bipyridine)-3-carboxamide]
≤ 200 nM | COc1ccc(F)cc1-c1cc(C)ncc1C(=O)Nc1nnc(OCc2ccc(Cl)cn2)s1 [Example 13, N-(5-((5-chloropyridin-2-yl)methoxy)-1,3,4-thiadiazol-2-yl)-4-(5-fluoro-2-methoxyphenyl)-6-methylnicotinamide]
≤ 200 nM | COc1cccc(F)c1-c1cc(C)ncc1C(=O)Nc1nnc(OCc2ccc(C(C)(C)C#N)cn2)s1 [Example 88, N-(5-((5-(2-cyanopropan-2-yl)pyridin-2-yl)methoxy)-1,3,4-thiadiazol-2-yl)-4-(2-fluoro-6-methoxyphenyl)-6-methylnicotinamide]
≤ 200 nM | COc1cccc(F)c1-c1cc(C)ncc1C(=O)Nc1nnc(OCC2CCCn3nccc32)s1 (stereo not shown) [Example 135, 4-(2-fluoro-6-methoxyphenyl)-6-methyl-N-(5-(4H,5H,6H,7H-pyrazolo(1,5-a)pyridin-4-ylmethoxy)-1,3,4-thiadiazol-2-yl)pyridine-3-carboxamide]
≤ 200 nM | COc1cnc(Cl)cc1-c1cc(C)ncc1C(=O)Nc1nnc(OCC2CCC2(F)F)s1 (stereo not shown) [Example 204, 2′-chloro-N-(5-((2,2-difluorocyclobutyl)methoxy)-1,3,4-thiadiazol-2-yl)-5′-methoxy-6-methyl-(4,4′-bipyridine)-3-carboxamide]
≤ 200 nM | COc1cnc(Cl)cc1-c1cc(C)ncc1C(=O)Nc1nnc(OC[C@@H]2COCC(C)(C)O2)s1 (single isomer, unassigned) [Example 220]
≤ 200 nM | Cc1cc(-c2cc(CO)ccc2F)c(C(=O)Nc2nnc(OCc3ccc(Cl)cn3)s2)cn1 [Example 23, N-(5-((5-chloropyridin-2-yl)methoxy)-1,3,4-thiadiazol-2-yl)-4-(2-fluoro-5-(hydroxymethyl)phenyl)-6-methylnicotinamide]
≤ 200 nM | COc1cccc(F)c1-c1cnncc1C(=O)Nc1nnc(OCc2ccc(C(C)(C)O)cn2)s1 [Example 81, 5-(2-fluoro-6-methoxyphenyl)-N-(5-((5-(2-hydroxypropan-2-yl)pyridin-2-yl)methoxy)-1,3,4-thiadiazol-2-yl)pyridazine-4-carboxamide]
≤ 200 nM | COc1cnc(Cl)cc1-c1cc(C)ncc1C(=O)Nc1nnc(OCC2COC(C)C2)s1 (stereo not shown) [Example 262, 2′-chloro-5′-methoxy-6-methyl-N-(5-((5-methyltetrahydrofuran-3-yl)methoxy)-1,3,4-thiadiazol-2-yl)-(4,4′-bipyridine)-3-carboxamide]
≤ 200 nM | Cc1cc(-c2c(F)cccc2OC(F)F)c(C(=O)Nc2nnc(OCc3ccc(CO)cn3)s2)cn1 [Example 25, 4-(2-(difluoromethoxy)-6-fluorophenyl)-N-(5-((5-(hydroxymethyl)pyridin-2-yl)methoxy)-1,3,4-thiadiazol-2-yl)-6-methylnicotinamide]
